Data published in PubChem BioAssay AID1645868 (Buhrlage Lab, Dana-Farber Cancer Institute and Novartis …, 2021).
The source made the active and inactive calls.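 How the source made its calls: active means maximal percent inhibition of the deubiquitinase OTUD3 of at least 30% across the tested doses; inactive means the rest.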

Target: OTU domain-containing protein 3 (Homo sapiens) (UniProt Q5T2D3)
Experiment: Validation of screening hits, potency titration, in vitro enzymatic, OTU domain-containing protein 3 DUB inhibitors (AID 1645868)
Details: purified OTUD3, ubiquitin-rhodamine cleavage fluorescence, 2 h

OTU domain-containing protein 3 (Homo sapiens), sequence (Q5T2D3 whole entry, looked up, the tested form may be a part): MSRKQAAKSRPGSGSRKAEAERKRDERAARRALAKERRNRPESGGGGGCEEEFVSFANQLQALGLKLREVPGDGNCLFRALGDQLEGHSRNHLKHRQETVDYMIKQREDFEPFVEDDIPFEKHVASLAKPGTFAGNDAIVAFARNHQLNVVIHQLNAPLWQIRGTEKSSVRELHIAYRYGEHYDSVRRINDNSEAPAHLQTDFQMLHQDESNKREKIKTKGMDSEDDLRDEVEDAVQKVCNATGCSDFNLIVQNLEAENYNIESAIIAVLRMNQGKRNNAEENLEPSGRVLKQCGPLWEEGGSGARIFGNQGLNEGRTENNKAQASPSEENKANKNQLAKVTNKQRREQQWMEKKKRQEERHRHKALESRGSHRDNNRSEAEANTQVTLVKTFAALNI

| Compound | IC50 |
| --- | --- |
| O=c1[nH]c2ccc(S(=O)(=O)Nc3ccc(O)c4ccccc34)cc2[nH]1 | > 50 µM (inactive) |
| Nc1c(C(=O)NCc2ccc3c(c2)OCO3)nnn1Cc1ccc(Br)cc1F | 19.7 µM |
| CN(C)c1ccc(/C=N/NC(=O)c2ccc(Cl)cc2)cc1 | 24.1 µM |
| CCCCN(C)C(=O)c1cc2c(=O)n3cccc(C)c3nc2n1Cc1ccccc1 | > 50 µM (inactive) |
| COC(=O)c1sc2ccccc2c1NC(=O)c1ccc(Br)s1 | 21.2 µM |
| O=C(Nc1cc(F)ccc1F)c1ccn(COc2ccc(F)c(Cl)c2)n1 | > 50 µM (inactive) |
| O=C(c1ccco1)N1CCC2(CC1)CC1(CO2)Nc2ccccc2-n2cccc21 (centres undefined) | > 50 µM (inactive) |
| N#Cc1c(-c2ccccc2)ccn(Cc2cccc(C(F)(F)F)c2)c1=O | > 50 µM (inactive) |
| Cc1nn(-c2ccc(Cl)cc2)c2[nH]c(=O)c(CNCC3CCCO3)cc12 (centres undefined) | > 50 µM (inactive) |
| CC(C)c1cc2c(c(O)c1O)[C@@]13CCCC(C)(C)[C@@H]1C[C@@H]2OC3=O | 28.1 µM |
| CCN(c1ccc(NC(=O)CSc2nnc(-c3ccccc3)n2-c2ccc(OC)c(OC)c2)cc1)C(C)C | 19.7 µM |
| N#Cc1ccc(Cn2nnc(-c3cccc(Cl)c3)n2)cc1 | > 50 µM (inactive) |
| CC(C)Cc1nc2sc3c(NCc4ccccc4)ncnc3c2c2c1COC(C)(C)C2 | 31.9 µM |
| CC1CCN(c2nc(F)c3c(c2F)S(=O)(=O)CCN3Cc2cccnc2)CC1 | > 50 µM (inactive) |
| CC1CCCN(CCCNC(=O)c2ccc(N3CCc4ccccc43)s2)C1 (centres undefined) | > 50 µM (inactive) |
| Cc1c(Cl)cccc1NC(=O)Cn1ccc2ccccc2c1=O | > 50 µM (inactive) |
| CCOc1ccc(-c2ccc3nnc(SCC(=O)Nc4cccc(C(C)=O)c4)n3n2)cc1 | > 50 µM (inactive) |
| CCc1ccc(NC(=O)COC(=O)c2n[nH]c3ccccc23)cc1 | 49.8 µM |
| C[C@]12C(=O)N(c3ccc(C(=O)NCc4ccc(F)cc4)cc3)C(=O)N1CCc1c2[nH]c2ccccc12 | > 50 µM (inactive) |
| Cc1c(-c2ccccc2)oc2c(C(=O)OCC(=O)Nc3ccccc3F)cccc2c1=O | > 50 µM (inactive) |

| Compound | IC50 |
| --- | --- |
| O=C(NCc1ccc(-c2nc3cnccc3o2)cc1)c1ccccc1Br | > 50 µM (inactive) |
| Cc1cc(C)cc(NC(=O)CSc2ccc(-c3ccncc3)nn2)c1 | > 50 µM (inactive) |
| CC(C)C1Cc2c(sc3nc(SCC(=O)Nc4cccc5ccccc45)nc(N)c23)CO1 (centres undefined) | > 50 µM (inactive) |
| O=C(NCc1ccccc1)c1ccc2c(=O)n(-c3ccccc3)c(=O)[nH]c2c1 | 38.1 µM |
| COc1ccc(-c2cc3nc([C@H](C)NC(=O)Cc4cccc(F)c4)nn3cn2)cc1 | 15.8 µM |
| CC(C)(C)n1ncc2c(=O)n(Cc3cccc([N+](=O)[O-])c3)cnc21 | > 50 µM (inactive) |
| O=C(O)c1ccc(C2Cc3c([nH]c(=O)[nH]c3=O)O2)cc1 (centres undefined) | 26.5 µM |
| COc1ccc(-c2cc3nc([C@H](C)NC(=O)Cc4ccccc4C)nn3cn2)cc1 | 6.66 µM |
| Cc1ccccc1C(=O)c1ccc(C(=O)NC2CCCCCC2)[nH]1 | 20.7 µM |
| CSc1ccccc1C(=O)Nc1nc(-c2ccncc2)cs1 | 46.3 µM |
| CCOC(=O)c1cc2c(ccn2C)n1CC(=O)N1CCc2ccccc2C1 | > 50 µM (inactive) |
| CSc1cccc(NC(=O)CCc2ccc3nc(NC(C)=O)sc3c2)c1 | > 50 µM (inactive) |
| CCOC(=O)[C@@H]1[C@@H](c2ccccc2)CN2CCN(C(=O)c3cnccn3)C[C@H]12 | > 50 µM (inactive) |
| Cn1nc(-c2nc(-c3ccccc3)no2)c2c1CCN(C(=O)C1CC1)C2 | > 50 µM (inactive) |
| CC(C)(C)c1ccc(C(=O)Nc2ccc(Cn3cncn3)cc2)cc1 | > 50 µM (inactive) |
| Cc1ccc(NCc2cc3c(C(C)(C)C)nn(-c4ccc(Cl)cc4)c3[nH]c2=O)cc1 | 33.5 µM |
| COC1=CC(=O)c2c(O)c(C)c(CC(C)=O)c(O)c2C1=O | > 50 µM (inactive) |
| Cc1ccc(C)c(-c2cc3c(=O)n(Cc4noc(CN5CCCCC5)n4)ccn3n2)c1 | > 50 µM (inactive) |
| COc1ccccc1C(=O)N1CCc2[nH]c3ccc(F)cc3c2C1 | > 50 µM (inactive) |
